For 16 compounds, IC50, Activity and DC50 results are on record in ChEMBL document CHEMBL6096628, “Discovery of a Highly Potent and Selective BRD9 PROTAC Degrader Based on E3 Binder Investigation for the Treatment of Hematological Tumors” (J Med Chem, 2024).

In general, IC50 refers to the point on the concentration scale where inhibition reaches its midpoint.

The source made the active and inactive calls. The rule behind the calls is not given here. A value given as a limit tells only on which side of the number the result lay.

Assay [1] deals with MV4-11. Description: Antiproliferative activity against CRBN knockout human MV4-11 cells assessed as inhibition of cell growth incubated for 7 days by MTS reagent based assay. The format is functional. As to conditions: MV4-11, 168 h. Background: Tetrazolium dyes change colour on reduction, which living cells bring about.
Assay [2] addresses T1, Protein cereblon/Bromodomain-containing protein 9 (Homo sapiens, UniProt Q9H8M2+Q96SW2). Nature of the assay: PROTAC activity at CRBN/BRD9 in human MV4-11 cells assessed as induction of BRD9 degradation at 10 nM by Western blot analysis relative to control. In kind it is cell-based.
Target sequence in this assay (Q96SW2 whole entry, looked up): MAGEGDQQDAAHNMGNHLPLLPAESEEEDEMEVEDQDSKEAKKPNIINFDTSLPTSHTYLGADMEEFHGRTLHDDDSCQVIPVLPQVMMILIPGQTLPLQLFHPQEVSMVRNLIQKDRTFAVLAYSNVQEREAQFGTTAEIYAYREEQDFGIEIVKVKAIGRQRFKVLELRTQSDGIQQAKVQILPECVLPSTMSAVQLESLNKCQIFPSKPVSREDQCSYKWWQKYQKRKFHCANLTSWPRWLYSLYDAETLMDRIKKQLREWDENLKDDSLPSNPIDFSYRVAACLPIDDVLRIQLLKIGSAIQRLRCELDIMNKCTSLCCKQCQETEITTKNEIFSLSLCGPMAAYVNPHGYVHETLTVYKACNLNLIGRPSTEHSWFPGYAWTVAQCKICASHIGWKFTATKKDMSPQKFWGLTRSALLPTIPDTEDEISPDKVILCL
Target sequence in this assay (Q9H8M2 whole entry, looked up): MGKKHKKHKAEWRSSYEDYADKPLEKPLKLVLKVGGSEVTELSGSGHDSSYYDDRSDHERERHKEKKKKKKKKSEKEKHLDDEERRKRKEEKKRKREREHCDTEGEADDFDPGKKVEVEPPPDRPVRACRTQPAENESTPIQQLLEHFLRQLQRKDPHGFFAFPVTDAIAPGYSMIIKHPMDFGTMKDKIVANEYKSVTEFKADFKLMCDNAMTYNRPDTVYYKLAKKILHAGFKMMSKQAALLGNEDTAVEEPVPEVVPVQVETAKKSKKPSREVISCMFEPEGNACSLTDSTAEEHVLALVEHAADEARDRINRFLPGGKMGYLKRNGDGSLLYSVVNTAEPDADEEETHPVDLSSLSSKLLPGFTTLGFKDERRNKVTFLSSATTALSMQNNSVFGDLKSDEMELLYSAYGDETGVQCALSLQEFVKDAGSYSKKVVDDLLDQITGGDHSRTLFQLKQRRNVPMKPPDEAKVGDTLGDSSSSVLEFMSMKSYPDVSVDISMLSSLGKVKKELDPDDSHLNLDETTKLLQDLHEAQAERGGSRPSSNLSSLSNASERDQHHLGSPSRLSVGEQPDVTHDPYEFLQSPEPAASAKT
The test system of assay [3] is MV4-11. Nature of the assay: Antiproliferative activity against human MV4-11 cells assessed as inhibition of cell growth incubated for 7 days by MTS reagent based assay. The format is functional. As to conditions: MV4-11, 168 h.
Assay [4] deals with T1, Protein cereblon/Bromodomain-containing protein 9. Description: PROTAC activity at CRBN/BRD9 in human MV4-11 cells assessed as induction of BRD9 degradation at 1 nM by Western blot analysis relative to control. In kind it is cell-based. (In general: A western blot detects proteins with antibodies after separation by electrophoresis.)
Target sequence in this assay (Q96SW2 whole entry, looked up): as the sequence (Q96SW2 whole entry, looked up) above
Target sequence in this assay (Q9H8M2 whole entry, looked up): as the sequence (Q9H8M2 whole entry, looked up) above
Assay [5] has the same target. Description: PROTAC activity at CRBN/BRD9 in human MV4-11 cells assessed as induction of BRD9 degradation at 100 nM by Western blot analysis relative to control. In kind it is cell-based.
Target sequence in this assay (Q96SW2 whole entry, looked up): as the sequence (Q96SW2 whole entry, looked up) above
Target sequence in this assay (Q9H8M2 whole entry, looked up): as the sequence (Q9H8M2 whole entry, looked up) above
The test system of another assay is Kasumi 1. Description: Antiproliferative activity against human Kasumi 1 cells assessed as inhibition of cell growth incubated for 7 days by MTS reagent based assay. The format is functional. The note with it: Kasumi 1, 168 h.
The subject of a further assay is U-937. Nature of the assay: Antiproliferative activity against human U-937 cells assessed as inhibition of cell growth incubated for 7 days by MTS reagent based assay. The format is functional. As to conditions: time 7.0 day.
Another assay relates to SU-DHL-2. Description: Antiproliferative activity against human SU-DHL-2 cells assessed as inhibition of cell growth incubated for 7 days by MTS reagent based assay. The format is functional. The note with it: SU-DHL-2, 168 h.
The test system of a further assay is OCI-Ly10. Description: Antiproliferative activity against human OCI-Ly10 cells assessed as inhibition of cell growth incubated for 7 days by MTS reagent based assay. As to conditions: OCI-Ly10, 168 h. The format is functional.
In a further assay the test system is SU-DHL-6. Description: Antiproliferative activity against human SU-DHL-6 cells assessed as inhibition of cell growth incubated for 7 days by MTS reagent based assay. In kind it is functional. As to conditions: SU-DHL-6, 168 h.
The next assay has as its system MOLM-13. Nature of the assay: Antiproliferative activity against human MOLM-13 cells assessed as inhibition of cell growth incubated for 7 days by MTS reagent based assay. The format is functional. As to conditions: MOLM-13, 168 h.
Assay [6] deals with T1, Protein cereblon/Bromodomain-containing protein 9. Description: PROTAC activity at CRBN/BRD9 (unknown origin). The format is protein assay.
Target sequence in this assay (Q9H8M2 whole entry): as the sequence (Q9H8M2 whole entry, looked up) above
Target sequence in this assay (Q96SW2 whole entry): as the sequence (Q96SW2 whole entry, looked up) above

Consider `COc1cc(-c2cn(C)c(=O)c3ccccc23)cc(OC)c1CN1CCN(c2ccc(NC3CCC(=O)NC3=O)cn2)CC1` (centres undefined), for which the IC50 is > 5 µM in the assay with MV4-11 [1] and 1.67 µM in the assay on MV4-11 [3]. Moreover, the results for the Activity in assay [2], in assay [4] and in assay [5] were 46.7%, 41.7% and 59.3%, respectively.

As for `COc1cc(-c2cn(C)c(=O)c3ccccc23)cc(OC)c1CN1CCC(c2ccc3c4c(cccc24)C(=O)N3C2CCC(=O)NC2=O)CC1` (centres undefined), the IC50 with MV4-11 [1] was > 5 µM; in the assay with MV4-11 [3] it was 0.00244 µM. In addition, the results for the Activity in assay [2], in assay [4] and in assay [5] were 80.5%, 79.5% and 50.5%, respectively.

On to `COc1cc(-c2cn(C)c(=O)c3ccccc23)cc(OC)c1CN1CCC(CN2CCN(c3ccc(NC4CCC(=O)NC4=O)cn3)CC2)CC1` (centres undefined), for which the IC50 in the assay on MV4-11 [1] is > 5 µM; in the assay with MV4-11 [3], 0.0119 µM. Besides, the Activity in assay [2] stood at 85.5%; in assay [4] it was 56%; in [5] it was 86.5%.

On to `COc1cc(-c2cn(C)c(=O)c3ccccc23)cc(OC)c1CN1CCC(CN2CCN(c3ccc(NC4CCC(=O)NC4=O)cc3)CC2)CC1` (centres undefined), for which the IC50 was > 5 µM with MV4-11 [1] and 0.00561 µM with MV4-11 [3]. Besides, the Activity in assay [2] is 96.5%; in [4], 69.5%; in [5], 97.5%.

On to `CCn1cc(-c2cccc(C(F)(F)F)c2)c2sc(C(=N)NC3CCS(=O)(=O)CC3)cc2c1=O`, for which the concentration for half-maximal inhibition (IC50) stood at 0.453 µM in the assay with Kasumi 1; 1.59 µM in the assay with SU-DHL-2; 0.385 µM with MV4-11 [3]; 2.71 µM with OCI-Ly10; 1.21 µM in the assay with SU-DHL-6; 1.22 µM in the assay with MOLM-13. In the assay with U-937, the Activity entry was “Active; Weak Inhibitory Effect Observed”.

Regarding `COc1cc(-c2cn(C)c(=O)c3ccccc23)cc(OC)c1CN1CCN(c2ccc(N3CCC(=O)NC3=O)cc2)CC1`, the IC50 in the assay with MV4-11 [1] is > 5 µM; in the assay on MV4-11 [3], 0.691 µM. Besides, the figures for the Activity in [2], in [4] and in [5] were 8%, 12% and 25%, respectively.

For the compound `COc1cc(-c2cn(C)c(=O)c(C)c2C)cc(OC)c1CN1CC[C@H](N2CCN(c3ccc(N[C@H]4CCC(=O)NC4=O)cc3F)CC2)C(F)(F)C1` (racemic) [SENDEGOBRESIB], the IC50 was 0.0146 µM in the assay on Kasumi 1; > 5 µM in the assay with MV4-11 [1]; 0.323 µM with SU-DHL-2; 0.0353 µM with MV4-11 [3]; 1.24 µM in the assay with OCI-Ly10; 3.25 µM in the assay with SU-DHL-6. For the same compound, in the assay on MOLM-13, the IC50 turned out to be 0.0599 µM. The compound also gave a DC50 in assay [6] of 0.003 µM. Further, the Activity was 74.9% in assay [2], “Active; Weak Inhibitory Effect Observed” in the assay with U-937, 6.9% in assay [4] and 93.9% in assay [5].

`COc1cc(-c2cn(C)c(=O)c3ccccc23)cc(OC)c1CN1CCN(c2ccc(NC3CCC(=O)NC3=O)cc2F)CC1` (centres undefined): the IC50 with MV4-11 [1] is > 5 µM; in the assay with MV4-11 [3] it was 0.0177 µM. The Activity was 74.7% in assay [2], 34% in [4] and 86% in [5].

In the case of `COc1cc(-c2cn(C)c(=O)c3ccccc23)cc(OC)c1CN1CCN(c2ccc(C3CCC(=O)NC3=O)cc2)CC1` (centres undefined), the IC50 in the assay with MV4-11 [1] was > 5 µM; in the assay on MV4-11 [3], 0.128 µM. For the same compound, the Activity turned out to be 87.3% in assay [2], 65% in [4] and 83.7% in [5].

On to `COc1cc(-c2cn(C)c(=O)c3ccccc23)cc(OC)c1CN1CCN(c2ccc(OC3CCC(=O)NC3=O)cc2)CC1` (centres undefined), for which the IC50 with MV4-11 [1] is > 5 µM; with MV4-11 [3], 3.61 µM. For the same compound, the Activity was 60.5% in assay [2], 32% in assay [4] and 80.5% in assay [5].

For `COc1cc(-c2cn(C)c(=O)c3ccccc23)cc(OC)c1CN1CCN(c2ccc(C(=O)NC3CCC(=O)NC3=O)cn2)CC1` (centres undefined), the IC50 in the assay with MV4-11 [1] is > 5 µM; in the assay on MV4-11 [3], 2.49 µM. Besides, the Activity in assay [2] was found to be 39.3%; in assay [4], 33.3%; in assay [5], 50%.

As for `COc1cc(-c2cn(C)c(=O)c3ccccc23)cc(OC)c1CN1CCC(CN2CCN(c3ccc(C(=O)NC4CCC(=O)NC4=O)nc3)CC2)CC1` (centres undefined), the IC50 in the assay on MV4-11 [1] was > 5 µM; in the assay on MV4-11 [3] it was 0.00531 µM. The Activity in [2] is 95.5%; in assay [4] it was 29.5%; in [5] it was 92%.

Consider `COc1cc(-c2cn(C)c(=O)c3ccccc23)cc(OC)c1CN1CCC(CN2CCN(c3ccc(OC4CCC(=O)NC4=O)cc3)CC2)CC1` (centres undefined), for which the values for the IC50 with MV4-11 [1] and in the assay on MV4-11 [3] were > 5 µM and 0.0469 µM, respectively. Besides, the figures for the Activity in [2], in assay [4] and in [5] were 89%, 13% and 98%, respectively.

For `COc1cc(-c2cn(C)c(=O)c3ccccc23)cc(OC)c1CN1CCN(c2ccc(C(=O)NC3CCC(=O)NC3=O)cc2)CC1` (centres undefined), the IC50 with MV4-11 [1] is > 5 µM; in the assay on MV4-11 [3] it was 3.15 µM. Besides, the Activity in assay [2] is 32.3%; in assay [4], 26.7%; in assay [5], 35.7%.

As to `COc1cc(-c2cn(C)c(=O)c3ccccc23)cc(OC)c1CN1CCN(c2ccc(C(=O)NC3CCC(=O)NC3=O)nc2)CC1` (centres undefined), the IC50 is > 5 µM with MV4-11 [1] and 4.51 µM in the assay with MV4-11 [3]. For the same compound, the Activity in [2] stood at 21.3%; in [4], 18.3%; in assay [5], 65%.

In the case of `COc1cc(-c2cn(C)c(=O)c3ccccc23)cc(OC)c1CN1CCN(c2ccc(NC3CCC(=O)NC3=O)cc2)CC1` (centres undefined), the IC50 was > 5 µM in the assay on MV4-11 [1] and 0.424 µM in the assay on MV4-11 [3]. The figures for the Activity in [2], in assay [4] and in assay [5] were 66%, 45.5% and 80.5%, respectively.
